Literature values as cited in patent US20190167749A1, “THE OLEO GEL COMPOSITION AND DELIVERY SYSTEM WITH ACTIVE COMPOUNDS FROM CANNABIS SATIVA AND MENTHA ARVENSIS FOR REDUCTION OF INFLAMMATION AND PAIN IN DEEP TISSUES” (UAB SATIMED, priority 2016, published 2019).
Where two headings read alike, the source gives them in different places.

System: collagen-induced arthritis

For `C=C(C)[C@@H]1CCC(C)=C[C@H]1c1c(O)cc(CCCCC)cc1O` [CBD, cannabidiol], the progression of arthritis (acute and chronic relapsing CIA, i.p. or oral administration) is listed as “effectively blocked progression of arthritis”, the “dose with optimal effect (bell-shaped dose dependency)” value (i.p.) is listed as 5 mg/kg per day and the “dose with optimal effect (bell-shaped dose dependency)” value (orally) is listed as 25 mg/kg per day.
